# Measured values reported in US9617271B2, “Triazolo compounds” (Hoffmann-La Roche Inc., priority 2012, dated 2017).
# Molecular target: human PDE10A (Homo sapiens (Human), UniProt Q9Y233)
# Assay: human PDE10A full length assay ([3H]-cGMP SPA)
# Type: biochemical
# Conditions: human PDE10A full length enzyme, 50 nM cGMP + 50 nM [3H]-cGMP, 20 minutes at room temperature; read-out: PDE10A inhibition IC50
# Method: The human PDE10A full length assay was performed in 96-well micro titer plates. The reaction mixture of 50 μl contained 20 mM HEPES pH=7.5/10 mM MgCl2/0.05 mg/ml BSA (Sigma cat. #A-7906), 50 nM cGMP (Sigma, cat. #G6129) and 50 nM [3H]-cGMP (GE Healthcare, cat. #TRK392 S.A. 13.2 Ci/mmol), 3.75 ng/well PDE10A enzyme (Enzo Life Science, Lausen, Switzerland cat #SE-534) with or without a specific test compound. A range of concentrations of the potential inhibitor was used to generate data for calculating the concentration of inhibitor resulting in 50% of the effect (e.g. IC50, the concentration of the competitor inhibiting PDE10A activity by 50%). Non-specific activity was tested without the enzyme. The reaction was initiated by the addition of the substrate solution (cGMP and [3H]-cGMP) and allowed to progress for 20 minutes at room temperature. The reaction was terminated by adding 25 μl of YSi-SPA scintillation beads (GE Healthcare, cat. #RPNQ0150) in 18 mM zinc sulphate solution (stop reagent). After 1 h under shaking, the plate was centrifuged one minute at 170 g to allow beads to settle. Afterwards, radioactive counts were measured on a Perkin Elmer TopCount Scintillation plate reader.
# human PDE10A, sequence (Q9Y233 other isoform, or with tags, fused parts or gaps): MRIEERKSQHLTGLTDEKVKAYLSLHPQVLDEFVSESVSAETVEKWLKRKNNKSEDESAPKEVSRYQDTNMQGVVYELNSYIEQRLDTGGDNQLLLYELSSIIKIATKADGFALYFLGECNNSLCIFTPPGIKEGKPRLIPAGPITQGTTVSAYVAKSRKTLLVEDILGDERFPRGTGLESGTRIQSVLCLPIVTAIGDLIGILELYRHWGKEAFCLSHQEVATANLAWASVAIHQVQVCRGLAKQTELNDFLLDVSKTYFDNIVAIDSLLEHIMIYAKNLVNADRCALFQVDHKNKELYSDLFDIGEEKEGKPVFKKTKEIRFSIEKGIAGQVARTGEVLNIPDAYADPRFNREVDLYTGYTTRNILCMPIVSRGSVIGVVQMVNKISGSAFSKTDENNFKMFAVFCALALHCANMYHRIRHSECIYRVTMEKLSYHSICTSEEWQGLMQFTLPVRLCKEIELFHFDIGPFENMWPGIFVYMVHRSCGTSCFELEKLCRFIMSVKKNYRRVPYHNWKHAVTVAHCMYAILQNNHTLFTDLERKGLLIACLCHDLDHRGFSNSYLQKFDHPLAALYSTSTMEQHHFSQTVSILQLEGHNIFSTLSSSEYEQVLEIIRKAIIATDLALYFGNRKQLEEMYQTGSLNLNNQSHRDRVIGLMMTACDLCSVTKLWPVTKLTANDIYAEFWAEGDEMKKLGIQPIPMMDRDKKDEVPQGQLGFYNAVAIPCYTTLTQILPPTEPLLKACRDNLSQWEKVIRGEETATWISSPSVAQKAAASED
row,Compound,IC50 [nM]
1,"Cc1c(C(F)(F)F)nn2ccc(C#Cc3nc(N4CCCC4)nn3C)nc12 [Example 71, 3-Methyl-5-[2-(2-methyl-5-pyrrolidin-1-yl-1,2,4-triazol-3-yl)ethynyl]-2-(trifluoromethyl)pyrazolo[1,5-a]pyrimidine]",8.7
2,"N-Ethyl-6,7-dimethyl-2-(2-(1-methyl-3-(pyrrolidin-1-yl)-1H-1,2,4-triazol-5-yl)ethyl)-imidazo[1,2-f][1,2,4]triazin-4-amine [Example 32]",6
3,"N-Ethyl-N,6,7-trimethyl-2-(2-(1-methyl-3-(pyrrolidin-1-yl)-1H-1,2,4-triazol-5-yl)ethyl)imidazo[1,2-f][1,2,4]triazin-4-amine [Example 34]",5

# Other lines, results leading:
row,IC50 [nM],Compound
1,13.7,"CNC(=O)c1cc(CCc2nc(N3CCCC3)nn2C)nn2c(C)c(C(F)(F)F)nc12 [Example 70, N,3-dimethyl-6-(2-(1-methyl-3-(pyrrolidin-1-yl)-1H-1,2,4-triazol-5-yl)ethyl)-2-(trifluoromethyl)imidazo[1,2-b]pyridazine-8-carboxamide]"
2,32.9,"Cc1c(C(F)(F)F)nn2ccc(CCc3nc(N4CCCC4)nn3C)nc12 [Example 72, 3-methyl-5-(2-(1-methyl-3-(pyrrolidin-1-yl)-1H-1,2,4-triazol-5-yl)ethyl)-2-(trifluoromethyl)pyrazolo[1,5-a]pyrimidine]"
